Test results from patent publication US6413508B1, “Green leaf volatiles as synergists for insect pheromones” (The United States of America as represented by the …, priority 1988, dated 2002).

Key:
Arizona boll weevils [1] = assay: Arizona third field experiment, traps around 20 cotton fields; type: in vivo, Anthonomus grandis; settings: grandlure 5 mg + trans-2-hexen-1-ol 10 mg
Protocol: In a third field experiment, 20 cotton fields were selected. Three traps were placed at least 100 m apart along the edge of each field (60 traps total). The three traps were baited with one of the following treatments: 1) a 10-mg grandlure “Hercon” wafer; 2) 5 mg of grandlure in the same “Hercon” formulation; 3) the 5-mg grandlure
formulation+10 mg of trans-2-hexen-1-ol. The traps were checked daily and weevils were removed for the next 2 days.

Boll Weevils [2] = assay: Competitive field test with released weevils, triangular trap array; type: in vivo, Anthonomus grandis
Protocol: Two series of field tests were performed involving released boll weevils, in which grandlure was placed in competition with grandlure + the synergist. In the first series of experiments, a triangular array of traps was used. One trap was placed at each corner of a 20 m equilateral triangle (total of three traps). The three treatments released in this triangular array of traps were: 1) grandlure 3 mg; 2) grandlure 3 mg+synergist 100 mg; and 3) synergist 100 mg. The three synergists tested in these experiments were: trans-2-hexen-1-ol, 1-hexanol, and cis-3-hexen-1-ol. Cigarette filters were used to release the experimental odorants. One hundred insets (50 males and 50 females) were released along a line 20 m from each side of the triangle (300 insects total) at ca. 1000 hrs prior to baiting of the traps at 1200 hrs. Traps were check and insects were removed at 1400 hrs, 1600 hrs, and 1800 hrs, the times at which the test was terminated.

[3] = tested on: Over-Wintered Boll Weevils; assay: Competitive field test with over-wintered boll weevils, 3 weeks; type: in vivo, Anthonomus grandis; settings: trans-2-hexen-1-ol 10 mg changed weekly, grandlure Hercon wafer 2.5 mg kept 3 wk
Protocol: The efficacy of the synergist in enhancing response of over-wintered boll weevils to grandlure was evaluated during the first 3 wks of May 1988, prior to the planting of cotton. In this experiment, the synergist trans-2-hexen-1-ol at 10 mg was released from a cigarette filter, in combination with a Hercon wafer formulation of grandlure at 2.5 mg. The grandlure formulation remained in the trap for the entire 3-wk period, while the cigarette filter containing the synergist was changed each week. During both the first and second weeks, trap captures increased for both the pheromone alone and for the pheromone+the synergist, presumably reflecting increasing numbers of boll weevils emerging from over-wintering sites (Table VII). However, while trap captures continued to increase for the pheromone+synergist during the third week, the number of boll weevils captured by the pheromone alone declined.

Boll Weevils [4] = assay: Competitive field tests in Mississippi cotton fields, 4-week test period; type: in vivo, Anthonomus grandis; settings: 10 mg and 100 mg, P<0.01, paired t-test
Protocol: Three cotton fields were used in this study to determine the effectiveness of trans-2-hexen-1-ol in synergizing grandlure in a practical situation. The experimental design consisted of placing four traps at the corners of a 20-m square within a cotton field of ca. 1 acre. Four additional traps were placed a few meters outside the cotton field, located near imaginary diagonal lines extending through the corners of the square within the field. Each trap contained a cigarette filter with 1 mg of grandlure. Cigarette filters containing trans-2-hexen-1-ol were placed alternately in the traps. The result resembled an “X” array of traps placed across each field with each arm of the “X” consisting of four traps, two within and two outside of the field. Traps within one arm contained grandlure 1 mg alone; those within the other arm were baited with grandlure 1 mg+trans-2-hexen-1-ol at a particular dosage. Only one dosage of the synergist occurred in each field. Dosages of trans-2-hexen-1-ol tested were: 1 mg, 10 mg, and 100 mg. Traps were freshly baited each week and checked daily at 1500 hrs for 3 days and at the end of the week.

Arizona boll weevils [5] = assay: Arizona initial field experiment, 24 traps in a straight line, four treatments; type: in vivo, Anthonomus grandis; settings: 1, 10, 100 mg with grandlure 1 mg
Protocol: Since boll weevils in this region differ genetically from those in the southeastern United States [Burke, Texas Agric. Exp. Sta. Tech. Rep., 152 pp. (1968)], these tests were performed to determine if green leaf volatiles would also enhance capture of Arizona boll weevils in traps baited with the aggregation pheromone.
In the initial field experiment, 24 traps were placed 30 m apart in a straight line along a road near Phoenix and were baited with four different treatments: 1) grandlure 1 mg; 2) grandlure 1 mg+trans-2-hexen-1-ol 1 mg; 3) grandlure 1 mg+trans-2-hexen-1-ol 10 mg; 4) grandlure 1 mg+trans-2-hexen-1-ol 100 mg. All compounds were released from cigarette filters after mixing in a solution to retard their rate of release, as previously described [McKibben et al., supra]. Treatments were arranged in six blocks with the four treatments randomized within each block. Traps were checked the next day.

Boll Weevils [6] = assay: Competitive field test with released weevils, four trap array; type: in vivo, Anthonomus grandis
Text: The second series of experiments involved an array of four traps. […] The two treatments being tested simultaneously in this competitive arrangement were placed alternately in the traps, i.e., the two traps baited with the same treatment were located diagonally from each other. Odorants diluted in hexane were released from glass capillaries placed in small vials in a container in each trap. […] Traps were then immediately baited. In each test, traps were checked and insects were removed at 1530 hrs and 1700 hrs on the day of release, and before 0900 hrs the next day (the time at which the test was terminated) in order to remove those insects which might have responded prior to darkness on the day of release.

[7] = tested on: Single Olfactory Cells Responsive to Volatiles Emanating from a Crushed Cotton Square; assay: Single-cell electrophysiology: action potentials from single olfactory cells; type: cell-based, Anthonomus grandis
Text: Single-cell recording techniques are described in detail elswhere [Dickens, Mitt. Schweiz. Entomol. Ges. 52: 203 (1979); Dickens et al., J. Chem. Ecol. 10: 583 (1984)]. In brief, microelectrodes used for recordings were constructed from 50.8 μm diameter tungsten wire electrolytically sharpened to a tip of 1-2 μm. The recording electrode was positioned under optical control (150-200 X) with a Leitz high-power micromanipulator near either the base of one of the three sensory bands encircling the club, or the base of an individual sensillum just distal to each sensory band region. The ground electrode was inserted in either the rostrum or distal end of the scape. Action potentials were amplified and conditioned by a Grass P-15 preamplifier and Tektronix 5A22N amplifier prior to visualization on a Tektronix 5223 digitizing oscilloscope. The signal then passed through a Teac R51-D data recorder for recording on cassette tapes prior to visualization on a Tektronix 5111 analog oscilloscope. Data were photographed from the analog oscilloscope with a Tektronix C-5C oscilloscope camera. Trains of action potentials were counted visually.
Upon obtaining a single cell preparation, odorous stimuli were presented every 3 min. […] The first two stimuli tested were volatiles emanating from 1 μg of grandlure, followed by volatiles emanating from a crushed cotton square. These two stimuli served to determine whether the cell was activated by the attractive pheromone of the boll weevil and/or volatiles emanating from its food source.

[8] = volatiles emanating from 1 μg of odorant, cell responsive to crushed cotton square

Compound: CCC/C=C/CO [trans-2-hexen-1-ol]
- effect of addition to grandlure on attractiveness over the 10-mg grandlure treatment (Arizona boll weevils [1]): enhanced its attractiveness
- % Total (Boll Weevils [2]; grandlure 3 mg vs trans-2-hexen-1-ol 100 mg vs both): 5.9%
- Mean Trap Capture (Boll Weevils [2]; grandlure 3 mg vs trans-2-hexen-1-ol 100 mg vs both, three replicates): 1.3 A
- activity alone in competition with the other treatments (Boll Weevils [2]; triangular array, 100 mg alone): relatively inactive
- attraction of grandlure on addition of the compound, relative to grandlure alone (Boll Weevils [2]; triangular array, grandlure 3 mg, synergist 100 mg): significantly increased
- effect of the synergist on effectiveness of the pheromone with time [3]: extend the effectiveness of the pheromone
- weevils captured in combination with grandlure 1 mg vs grandlure alone at 1 mg (Boll Weevils [4]): captured more weevils of both sexes
- effect of addition on trap capture over grandlure alone (Arizona boll weevils [5]): enhanced trap capture
- trap capture in combination with grandlure (0.8 mg) in competition with grandlure (0.8 mg) alone (Boll Weevils [6]; 0.1 mg, P<0.10, paired t-test): increased trap capture
- synergism with grandlure (0.8 mg) in competition with grandlure (0.8 mg) alone (Boll Weevils [6]; 1.0 mg of the compound): even more apparent
- effectiveness in combination with grandlure (0.8 mg) vs the combination with 1-hexanol (Boll Weevils [6]; each presented with grandlure 0.8 mg in a competitive experiment): more effective
- response of cells activated by volatiles from the crushed cotton square ([7]; single olfactory cells): activated
- Response in impulses/initial 500 msec, Cell #1 [7, 8]: 83 impulses/initial 500 msec
- Response in impulses/initial 500 msec, Cell #2 [7, 8]: 67 impulses/initial 500 msec
- Response in impulses/initial 500 msec, Cell #3 [7, 8]: 50 impulses/initial 500 msec
- Response in impulses/initial 500 msec, Cell #4 [7, 8]: 33 impulses/initial 500 msec
